Data on 46 compounds can be found in ChEMBL document CHEMBL1126551, “Three-dimensional quantitative structure-activity relationships of 5-HT receptor binding data for tetrahydropyridinylindole derivatives: a comparison of the Hansch and CoMFA methods” (J Med Chem, 1993).

The target of this experiment is T1, 5-hydroxytryptamine receptor 1A (Rattus norvegicus, UniProt P19327).
T1 sequence (P19327 whole entry): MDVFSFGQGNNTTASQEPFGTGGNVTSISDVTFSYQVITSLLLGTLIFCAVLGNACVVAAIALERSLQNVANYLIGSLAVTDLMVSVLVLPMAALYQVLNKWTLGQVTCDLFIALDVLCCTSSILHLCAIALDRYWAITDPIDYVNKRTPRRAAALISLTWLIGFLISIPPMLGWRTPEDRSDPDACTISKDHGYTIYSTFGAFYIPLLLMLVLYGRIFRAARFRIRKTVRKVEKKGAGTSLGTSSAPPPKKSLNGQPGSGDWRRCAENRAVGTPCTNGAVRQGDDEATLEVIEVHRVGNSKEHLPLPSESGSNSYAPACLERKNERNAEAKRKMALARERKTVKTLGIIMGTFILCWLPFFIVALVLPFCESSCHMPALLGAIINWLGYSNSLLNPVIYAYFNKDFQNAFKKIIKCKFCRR
Description: Binding affinity towards 5-hydroxytryptamine 1A receptor using [3H]8-OH-DPAT as radioligand.
Turning to `CN1CC=C(c2c[nH]c3ccc([Si](C)(C)C)cc23)CC1`, the Ki is 165 nM. With `COc1ccc2[nH]cc(C3CCN(C)CC3)c2c1` the figure was 138 nM; with `CCN1CC=C(c2c[nH]c3ccc(C(=O)OC)cc23)CC1`, 384 nM.

The compound `CCCN1CC=C(c2c[nH]c3ccc(OC)cc23)CC1` had a Ki of 363 nM. The Ki values of the last two compounds are within 1.5-fold of each other.

Compound `CCOC(=O)c1ccc2[nH]cc(C3=CCN(C)CC3)c2c1` showed a Ki of 36.1 nM. This Ki lies about 10-fold lower than the previous one. With `CC(=O)Nc1ccc2[nH]cc(C3=CCN(C)CC3)c2c1` the figure was 77.6 nM; with `CN1CC=C(c2c[nH]c3ccccc23)CC1`, 146 nM; with `CN1CC=C(c2c[nH]c3ccc(O)cc23)CC1`, 61.7 nM. Compound `CN1CC=C(c2c[nH]c3ccc(N4C(=O)c5ccccc5C4=O)cc23)CC1` had a Ki of 377 nM. This Ki is about 6.1-fold higher than that of the compound before. The result for `CN1CC=C(c2c[nH]c3ccc(-c4ccccn4)cc23)CC1` reads 25.1 nM; that for `CCCN1CC=C(c2c[nH]c3ccccc23)CC1`, 556 nM; that for `CN1CC=C(c2c[nH]c3ccc(-c4ccc(F)cc4)cc23)CC1`, 69 nM. `CN1CC=C(c2c[nH]c3ccc(NS(C)(=O)=O)cc23)CC1` gave a Ki of 692 nM. The result for `CN1CC=C(c2c[nH]c3ccc(Br)cc23)CC1` reads 11 nM; that for `CN1CC=C(c2c[nH]c3ccc(-c4cccs4)cc23)CC1`, 19 nM. The result for `COC(=O)c1ccc2[nH]cc(C3=CCN(C)CC3)c2c1` reads 19.4 nM; that for `C1=C(c2c[nH]c3ccccc23)CCNC1`, 189 nM.

The compound `CC(=O)Oc1ccc2[nH]cc(C3=CCN(C)CC3)c2c1` had a Ki of 81.3 nM. The result for `CC(O)c1ccc2[nH]cc(C3=CCN(C)CC3)c2c1` (stereo unspecified) reads 221 nM.

Take `CN1CC=C(c2c[nH]c3ccc([S+](C)[O-])cc23)CC1` (stereo unspecified): affinity was put at a Ki of 105 nM. As to `CCCN1CC=C(c2c[nH]c3ccc(C(N)=O)cc23)CC1`, affinity was put at a Ki of 17 nM. `CC(=O)c1ccc2[nH]cc(C3=CCN(C)CC3)c2c1`: the Ki was 23 nM. The Ki values of the last two compounds are within 1.5-fold of each other. With `CCCN1CC=C(c2c[nH]c3ccc(C#N)cc23)CC1` the figure was 303 nM; with `CN1CC=C(c2cn(Cc3ccccc3)c3ccccc23)CC1`, 10000 nM. With `CN1CC=C(c2c[nH]c3ccc(-c4ccncc4)cc23)CC1` the figure was 74.1 nM; with `CN1CC=C(c2c[nH]c3ccc(Cl)cc23)CC1`, 189 nM. Turning to `O=[N+]([O-])c1ccc2[nH]cc(C3=CCNCC3)c2c1`, the Ki was 64.6 nM. The result for `CN1CC=C(c2c[nH]c3ccc(OCc4ccccc4)cc23)CC1` reads 111 nM; that for `CN1CC=C(c2c[nH]c3ccc(C(N)=O)cc23)CC1`, 5.3 nM; that for `CN1CC=C(c2c[nH]c3ccc([N+](=O)[O-])cc23)CC1`, 21.1 nM. With `CN1CC=C(c2c[nH]c3ccc(C#N)cc23)CC1` the figure was 55 nM. With `CN1CC=C(c2c[nH]c3ccc(-c4ccccc4)cc23)CC1` the figure was 55 nM; with `COc1ccc2[nH]c(C)c(C3=CCN(C)CC3)c2c1`, 345 nM; with `C1=C(c2c[nH]c3ccccc23)CCN(Cc2ccccc2)C1`, 923 nM.

`COc1ccc2[nH]cc(C3=CCN(C)CC3)c2c1` showed a Ki of 21.1 nM.

Consider `CN1CC=C(c2c[nH]c3ccc(C(C)(C)O)cc23)CC1`, for which affinity was put at a Ki of 187 nM. The result for `CCCN1CC=C(c2c[nH]c3ccc(NC(C)=O)cc23)CC1` reads 37 nM. The result for `CN1CC=C(c2c[nH]c3ccc(CO)cc23)CC1` reads 126 nM; that for `CSc1ccc2[nH]cc(C3=CCN(C)CC3)c2c1`, 23 nM; that for `CN1CC=C(c2c[nH]c3ccc(S(C)(=O)=O)cc23)CC1`, 188 nM. With `CN1CCC(c2c[nH]c3ccccc23)(c2c[nH]c3ccccc23)CC1` the figure was 550 nM; with `CN1CC=C(c2c[nH]c3ccc(C4OCCO4)cc23)CC1`, 87.9 nM; with `CN1CCC(c2c[nH]c3ccccc23)CC1`, 513 nM. The compound `CN1CC=C(c2c[nH]c3ccc(-c4ccsc4)cc23)CC1` had a Ki of 25.1 nM. With `Cc1ccc2[nH]cc(C3=CCN(C)CC3)c2c1` the figure was 146 nM; with `CN1CC=C(c2c[nH]c3ccc(-c4cccnc4)cc23)CC1`, 200 nM.
